{"source": "patent US20210052741A1", "about": "“GENE THERAPY METHODS AND COMPOSITIONS USING AUXOTROPHIC REGULATABLE CELLS” (AUXOLYTIC LTD, priority 2018, published 2021)", "key": {"[1]": {"details": "oral; cited from earlier work"}, "[2]": {"system": "UMPS edited T cells", "assay": "TIDE analysis of UMPS InDels in mixed UMPS edited population", "type": "cell-based, human", "procedure": "Sanger sequencing of the UMPS locus was performed using UMPS-O-1 and UMPS-O-2, with the region amplified using PHUSION™ Hot Start Flex 2x Master Mix (New England Biolabs, Inc.). Sanger sequencing traces were analyzed by TIDE analysis (see, Brinkman et al, 2014, Nucleic Acids Res. 42(22):e168), which is hereby incorporated by reference in its entirety) to identify insertions and deletions (InDels) after editing. InDel quantification was performed on the sequences using the TIDE online tool (www.deskgen.com/landing/tide.html) (See, M. Sadelain, N. Engl. J. Med. 365, 1735-7 (2011), which is hereby incorporated by reference in its entirety.\nT Cells were electroporated and edited as in Example 2 and allowed to recover for a 4-day period in medium with serum, uridine, and UMP. On day 4, cells were shifted to UMP, uridine, or uracil source media. […]\nTo confirm the results on the genomic level, genomic DNA was harvested at the end of the experiment and InDels were quantified (FIG. 5D-FIG. 5E). FIG. 5D compares the frequency of InDels in different culture conditions for cells not exposed to 5-FOA."}, "[3]": {"system": "UMPS knockout T cells", "assay": "Growth time course with/without UMP or uridine", "type": "cell-based, human", "procedure": "(§1) Genomic DNA was harvested using QUICKEXTRACT™ DNA Extraction Kit (Epicentre). Cells were counted on an automated cell counter using Trypan blue staining or on a CytoFLEX flow cytometer (Beckman Coulter) with automatic plate reader using COUNTBRIGHT™ beads (ThermoFisher) as a reference for normalizing the values. Alternatively, cells were analyzed after staining with fluorochrome-labelled antibodies (Biolegend) on an ACCURI™ C6 flow cytometer (BD Biosciences), which also measures volumes, or a FACS ARIA™ II SORP cell sorter (BD Biosciences). Data was analyzed using Excel (Microsoft) and FlowJo software (Tree Star).\nT Cells were electroporated and edited as in Example 2 and allowed to recover for a 4-day period in medium with serum, uridine, and UMP. On day 4, cells were shifted to UMP, uridine, or uracil source media.\nTo evaluate whether the UMPS knockout leads to differential cell proliferation if cultured without the addition of Uridine or Uridine monophosphate (UMP), the cell counts in culture were followed over time by automatic cell counting with Trypan blue staining. UMPS knockout led to lower cell counts from day 2 after electroporation, compared to cells that were mock electroporated or electroporated using Cas9 targeting a different genomic locus (i.e., CCR5) (FIG. 5B)."}, "[4]": {"system": "UMPS knockout T cells", "assay": "Cell counts after recovery post-electroporation", "type": "cell-based, human", "details": "4 days recovery post electroporation, no serum, with 5-FOA", "procedure": "(§2) K562 cells (acquired from ATCC) and Nalm6 cells (kindly provided by C. Mackall) were cultured in RPMI 1640 (HyClone) supplemented with 10% bovine growth serum, 2 mM L-glutamine and 100 U/ml Penicillin and 100 U/ml Streptomycin. T cells were either used fresh after isolation from buffy coats obtained from healthy donors. T cells were isolated through a Ficoll density gradient centrifugation followed by magnetic enrichment using the Pan T Cell Isolation Kit (Miltenyi Biotec).\n(§3) Cells were cryopreserved in BAMBANKER™ medium. After thawing cells were cultured at 37° C., 5% CO2 in X-Vivo 15 (Lonza) supplemented with or without 5% human serum (Sigma-Aldrich) and […] recombinant IL-2 (Peprotech) and 10 ng/ml human recombinant IL-7 (BD Biosciences). […]\nas §1, with “Star). […]” for “Star).”"}, "[5]": {"system": "mock edited T cells", "assay": "Cell counts after recovery post-electroporation", "type": "cell-based, human", "details": "4 days recovery post electroporation, no serum, with 5-FOA", "procedure": "as §2, §3\nas §1, with “Star). […]” for “Star).”"}, "[6]": {"system": "UMPS^KO/KO/GFP^+ K562 cells mixed with UMPS^WT/WT K562 cells", "assay": "5-FOA resistance in mixed K562 culture", "type": "cell-based, human", "details": "for Percentages of GFP+ cells, Day 1 / Percentages of GFP+ cells, Day 2 / Percentages of GFP+ cells, Day 3 / Percentages of GFP+ cells, Day 4 / Percentages of GFP+ cells, Day 6 / Percentages of GFP+ cells, Day 8: with Uridine", "procedure": "To determine the resistance of UMP S knockout cells to 5-FOA the purified uMPS^KO/KO/GFP^+ K562 cells were mixed at an equal ratio with UMPS^wT/WT/GFP-negative K562 cells. The cells were cultured in the presence of Uridine and different concentrations of 5-FOA (FIG. 6F)."}, "[7]": {"details": "cells not exposed to 5-FOA, end of experiment, metabolite 250 μg/ml"}, "[8]": {"details": "UMPS knockout, metabolite 250 μg/ml"}}, "note": "Several values for one entry are separate records, joined by “and”; a condition that tells them apart may be missing. Equal entries are not always repeated.", "data": [{"compound": "O=c1ccn([C@@H]2O[C@H](CO)[C@@H](O)[C@H]2O)c(=O)[nH]1", "note": "[Uridine]", "values": [{"measurement": "absorption and breakdown", "setting": "[1]", "value": "poorly absorbed in the gastrointestinal tract and broken down in the liver"}, {"measurement": "Alleles with frameshift InDels, Percent of alleles (without 5-FOA)", "setting": "[2]; TIDE, day 8, metabolite 250 μg/ml", "value": 52.5, "unit": "%"}, {"measurement": "Alleles with InDels, Percent of alleles (without 5-FOA)", "setting": "[2]; TIDE, metabolite 250 μg/ml", "value": 77.0, "unit": "%"}, {"measurement": "frameshift InDel frequency, Percent", "setting": "[2]; [7]", "value": 52.5, "unit": "%"}, {"measurement": "overall InDel frequency, Percent (%)", "setting": "[2]; [7]", "value": 77.0, "unit": "%"}, {"measurement": "Predicted viable cell counts, Cells with In-frame InDel", "setting": "[2]; day 8, metabolite 250 μg/ml", "value": 777000}, {"measurement": "Predicted viable cell counts, Cells with frameshift InDel", "setting": "[2]; day 8, metabolite 250 μg/ml", "value": 1660000}, {"measurement": "Predicted viable cell counts, Cells without InDel", "setting": "[2]; day 8, metabolite 250 μg/ml", "value": 729100}, {"measurement": "Cell density, Day 1", "setting": "[3]; [8]", "value": "7.69E+05", "unit": "cells per ml"}, {"measurement": "Cell density, Day 2", "setting": "[3]; [8]", "value": "1.59E+06", "unit": "cells per ml"}, {"measurement": "Cell density, Day 4", "setting": "[3]; [8]", "value": "3.43E+06", "unit": "cells per ml"}, {"measurement": "Cell density, Day 6", "setting": "[3]; [8]", "value": "3.79E+06", "unit": "cells per ml"}, {"measurement": "Cell density, Day 8", "setting": "[3]; [8]", "value": "3.17E+06", "unit": "cells per ml"}, {"measurement": "Number of viable cells per ml, Day 1", "setting": "[3]; [8]", "value": 769000, "unit": "cells per ml"}, {"measurement": "Number of viable cells per ml, Day 2", "setting": "[3]; [8]", "value": 1590000, "unit": "cells per ml"}, {"measurement": "Number of viable cells per ml, Day 4", "setting": "[3]; [8]", "value": 3430000, "unit": "cells per ml"}, {"measurement": "Number of viable cells per ml, Day 6", "setting": "[3]; [8]", "value": 3790000, "unit": "cells per ml"}, {"measurement": "Number of viable cells per ml, Day 8", "setting": "[3]; [8]", "value": 3170000, "unit": "cells per ml"}, {"measurement": "growth of UMPS edited culture", "setting": "[3]; exogenous uracil source 250 μg/ml", "value": "rescued the growth of an UMPS edited culture to the same level as mock edited cells"}, {"measurement": "cell proliferation after UMPS knockout", "setting": "[3]; supplemented at 250 μg/ml", "value": "not impaired"}]}, {"compound": "O=C(O)c1[nH]c(=O)[nH]c(=O)c1F", "note": "[5-FOA, 5-fluoroorotic acid]", "values": [{"measurement": "Intact cells (absolute)", "setting": "[4]", "value": 395}, {"measurement": "Intact cells (absolute)", "setting": "[5]", "value": 580}, {"measurement": "Number of GFP + cells per μl, Day 1", "setting": "[6]; 10 ug/ml 5-FOA", "value": 87013.04, "unit": "cells per μl"}, {"measurement": "Number of GFP + cells per μl, Day 2", "setting": "[6]; 10 ug/ml 5-FOA", "value": 163245.74, "unit": "cells per μl"}, {"measurement": "Number of GFP + cells per μl, Day 4", "setting": "[6]; 10 ug/ml 5-FOA", "value": 569281.05, "unit": "cells per μl"}, {"measurement": "Number of GFP + cells per μl, Day 6", "setting": "[6]; 10 ug/ml 5-FOA", "value": 550780.31, "unit": "cells per μl"}, {"measurement": "Number of GFP + cells per μl, Day 8", "setting": "[6]; 10 ug/ml 5-FOA", "value": 719624.13, "unit": "cells per μl"}, {"measurement": "Percentages of GFP+ cells, Day 1", "setting": "[6]; 10 ug/ml 5-FOA", "value": "45.4% and 48.5%"}, {"measurement": "Percentages of GFP+ cells, Day 2", "setting": "[6]; 10 ug/ml 5-FOA", "value": "54.7% and 56.8%"}, {"measurement": "Percentages of GFP+ cells, Day 3", "setting": "[6]; 10 ug/ml 5-FOA", "value": "65.6% and 64.0%"}, {"measurement": "Percentages of GFP+ cells, Day 4", "setting": "[6]; 10 ug/ml 5-FOA", "value": "64.8% and 69.7%"}, {"measurement": "Percentages of GFP+ cells, Day 6", "setting": "[6]; 10 ug/ml 5-FOA", "value": "79.1% and 76.5%"}, {"measurement": "Percentages of GFP+ cells, Day 8", "setting": "[6]; 10 ug/ml 5-FOA", "value": "85.0% and 79.8%"}, {"measurement": "Number of GFP + cells per μl, Day 1", "setting": "[6]; 100 ug/ml 5-FOA", "value": 115272.35, "unit": "cells per μl"}, {"measurement": "Number of GFP + cells per μl, Day 2", "setting": "[6]; 100 ug/ml 5-FOA", "value": 106377.73, "unit": "cells per μl"}, {"measurement": "Number of GFP + cells per μl, Day 4", "setting": "[6]; 100 ug/ml 5-FOA", "value": 376993.53, "unit": "cells per μl"}, {"measurement": "Number of GFP + cells per μl, Day 6", "setting": "[6]; 100 ug/ml 5-FOA", "value": 501940.62, "unit": "cells per μl"}, {"measurement": "Number of GFP + cells per μl, Day 8", "setting": "[6]; 100 ug/ml 5-FOA", "value": 693093.53, "unit": "cells per μl"}, {"measurement": "Percentages of GFP+ cells, Day 1", "setting": "[6]; 100 ug/ml 5-FOA", "value": "52.6% and 48.9%"}, {"measurement": "Percentages of GFP+ cells, Day 2", "setting": "[6]; 100 ug/ml 5-FOA", "value": "67.1% and 64.2%"}, {"measurement": "Percentages of GFP+ cells, Day 3", "setting": "[6]; 100 ug/ml 5-FOA", "value": "79.5% and 71.4%"}, {"measurement": "Percentages of GFP+ cells, Day 4", "setting": "[6]; 100 ug/ml 5-FOA", "value": "85.2% and 74.4%"}, {"measurement": "Percentages of GFP+ cells, Day 6", "setting": "[6]; 100 ug/ml 5-FOA", "value": "92.1% and 86.2%"}, {"measurement": "Percentages of GFP+ cells, Day 8", "setting": "[6]; 100 ug/ml 5-FOA", "value": "92.8% and 82.8%"}, {"measurement": "Number of GFP + cells per μl, Day 1", "setting": "[6]; 1000 ug/ml 5-FOA", "value": 75925.72, "unit": "cells per μl"}, {"measurement": "Number of GFP + cells per μl, Day 2", "setting": "[6]; 1000 ug/ml 5-FOA", "value": 79080.77, "unit": "cells per μl"}, {"measurement": "Number of GFP + cells per μl, Day 4", "setting": "[6]; 1000 ug/ml 5-FOA", "value": 151010.55, "unit": "cells per μl"}, {"measurement": "Number of GFP + cells per μl, Day 6", "setting": "[6]; 1000 ug/ml 5-FOA", "value": 217794.10, "unit": "cells per μl"}, {"measurement": "Number of GFP + cells per μl, Day 8", "setting": "[6]; 1000 ug/ml 5-FOA", "value": 339282.35, "unit": "cells per μl"}, {"measurement": "Percentages of GFP+ cells, Day 1", "setting": "[6]; 1000 ug/ml 5-FOA", "value": "51.9% and 49.4%"}, {"measurement": "Percentages of GFP+ cells, Day 2", "setting": "[6]; 1000 ug/ml 5-FOA", "value": "65.0% and 58.9%"}, {"measurement": "Percentages of GFP+ cells, Day 3", "setting": "[6]; 1000 ug/ml 5-FOA", "value": "72.9% and 66.9%"}, {"measurement": "Percentages of GFP+ cells, Day 4", "setting": "[6]; 1000 ug/ml 5-FOA", "value": "82.0% and 77.7%"}, {"measurement": "Percentages of GFP+ cells, Day 6", "setting": "[6]; 1000 ug/ml 5-FOA", "value": "92.6% and 90.5%"}, {"measurement": "Percentages of GFP+ cells, Day 8", "setting": "[6]; 1000 ug/ml 5-FOA", "value": "90.1% and 75.7%"}, {"measurement": "proliferation of UMPS knockout cells in 5-FOA", "setting": "[6]; 10 and 100 μg/ml 5-FOA", "value": "proliferated well"}, {"measurement": "fraction of UMPS^KO/KO cells", "setting": "[6]; all 5-FOA concentrations used", "value": "increased over time"}, {"measurement": "cell growth of UMPS knockout cells in 5-FOA", "setting": "[6]; highest concentration (1000 ug/ml)", "value": "slowed their cell growth down"}]}]}
